Data from ChEMBL document CHEMBL3864153, “Metabolism-based structure optimization: Discovery of a potent and orally available tyrosine kinase ALK inhibitor bearing the tetracyclic benzo[b]carbazolone core” (Bioorg Med Chem Lett, 2016).
Values belong to the molecule of their own block, whether it stands above or below them. The source made the active and inactive calls. The rule behind the calls is not given here.

Columns and labels:
[1] = biological target: Epidermal growth factor receptor (Homo sapiens, UniProt P00533); assay: Inhibition of recombinant EGFR (unknown origin) using poly (Glu,Tyr)4:1 as substrate after 60 mins by ELISA
[2] = biological target: Platelet-derived growth factor receptor beta (Homo sapiens, UniProt P09619); assay: Inhibition of recombinant PDGFR-beta (unknown origin) using poly (Glu,Tyr)4:1 as substrate after 60 mins by ELISA
[3] = biological target: Platelet-derived growth factor receptor alpha (Homo sapiens, UniProt P16234); assay: Inhibition of recombinant PDGFR-alpha (unknown origin) using poly (Glu,Tyr)4:1 as substrate after 60 mins by ELISA
[4] = Volume of distribution in Sprague-Dawley rat at 5 mg/kg, iv; assay type: ADME, organism-based; conditions: in vivo
[5] = biological target: Insulin-like growth factor 1 receptor (Homo sapiens, UniProt P08069); assay: Inhibition of recombinant IGF1R (unknown origin) using poly (Glu,Tyr)4:1 as substrate after 60 mins by ELISA
[6] = biological target: Proto-oncogene tyrosine-protein kinase Src (Homo sapiens, UniProt P12931); assay: Inhibition of recombinant c-Src (unknown origin) using poly (Glu,Tyr)4:1 as substrate after 60 mins by ELISA
[7] = Antiproliferative activity against ALK constitutively activated human KARPAS299 cells after 72 hrs by SRB or CCK8 assay; conditions: KARPAS-299, 72 h
[8] = Clearance in Sprague-Dawley rat at 5 mg/kg, iv; assay type: ADME, organism-based; conditions: in vivo
[9] = Antiproliferative activity against ALK constitutively activated human SU-DHL1 cells after 72 hrs by SRB or CCK8 assay; conditions: SU-DHL-1, 72 h
Ephrin type-A receptor 2 = Ephrin type-A receptor 2 (Homo sapiens, UniProt P29317); assay: Inhibition of recombinant EPHA2 (unknown origin) using poly (Glu,Tyr)4:1 as substrate after 60 mins by ELISA
[10] = AUC (0 to infinity) in Sprague-Dawley rat at 5 mg/kg, iv; assay type: ADME, organism-based; design: dose 5 mg/kg, time infinity, route intravenous; conditions: in vivo
[11] = biological target: Receptor tyrosine-protein kinase erbB-2 (Homo sapiens, UniProt P04626); assay: Inhibition of recombinant ErbB2 (unknown origin) using poly (Glu,Tyr)4:1 as substrate after 60 mins by ELISA
[12] = biological target: ALK tyrosine kinase receptor (Homo sapiens, UniProt Q9UM73, L1196M); assay: Inhibition of recombinant ALK L1196M mutant (unknown origin) using poly (Glu,Tyr)4:1 as substrate after 60 mins by ELISA
[13] = AUC (0 to infinity) in Sprague-Dawley rat at 10 mg/kg, po; assay type: ADME, organism-based; design: dose 10 mg/kg, time infinity, route oral; conditions: in vivo
[14] = Half life in Sprague-Dawley rat at 5 mg/kg, iv; assay type: ADME, organism-based; conditions: in vivo
[15] = Cmax in Sprague-Dawley rat at 10 mg/kg, po; assay type: ADME, organism-based; design: dose 10 mg/kg, route oral; conditions: in vivo
[16] = Antiproliferative activity against ALK constitutively activated human NCI-H3122 cells at 50 nM after 72 hrs by SRB or CCK8 assay relative to control; assay type: functional; conditions: NCI-H3122, 72 h
[17] = biological target: Receptor tyrosine-protein kinase erbB-4 (Homo sapiens, UniProt Q15303); assay: Inhibition of recombinant ErbB4 (unknown origin) using poly (Glu,Tyr)4:1 as substrate after 60 mins by ELISA
[18] = biological target: Voltage-gated inwardly rectifying potassium channel KCNH2 (Homo sapiens, UniProt Q12809); assay: Inhibition of human ERG
[19] = biological target: Mast/stem cell growth factor receptor Kit (Homo sapiens, UniProt P10721); assay: Inhibition of recombinant c-Kit (unknown origin) using poly (Glu,Tyr)4:1 as substrate after 60 mins by ELISA
[20] = Tmax in Sprague-Dawley rat at 10 mg/kg, po; assay type: ADME, organism-based; conditions: in vivo
[21] = biological target: Tyrosine-protein kinase ABL1 (Homo sapiens, UniProt P00519); assay: Inhibition of recombinant ABL (unknown origin) using poly (Glu,Tyr)4:1 as substrate after 60 mins by ELISA
[22] = Oral bioavailability in Sprague-Dawley rat at 10 mg/kg; assay type: ADME, organism-based; conditions: in vivo
[23] = Antiproliferative activity against ALK constitutively activated human NCI-H3122 cells after 72 hrs by SRB or CCK8 assay; conditions: NCI-H3122, 72 h
[24] = biological target: Vascular endothelial growth factor receptor 2 (Homo sapiens, UniProt P35968); assay: Inhibition of recombinant KDR (unknown origin) using poly (Glu,Tyr)4:1 as substrate after 60 mins by ELISA
[25] = biological target: T1, ALK tyrosine kinase receptor (Homo sapiens, UniProt Q9UM73); assay: Inhibition of recombinant wild type ALK (unknown origin) using poly (Glu,Tyr)4:1 as substrate after 60 mins by ELISA
Target sequence in this assay (Q9UM73 whole entry): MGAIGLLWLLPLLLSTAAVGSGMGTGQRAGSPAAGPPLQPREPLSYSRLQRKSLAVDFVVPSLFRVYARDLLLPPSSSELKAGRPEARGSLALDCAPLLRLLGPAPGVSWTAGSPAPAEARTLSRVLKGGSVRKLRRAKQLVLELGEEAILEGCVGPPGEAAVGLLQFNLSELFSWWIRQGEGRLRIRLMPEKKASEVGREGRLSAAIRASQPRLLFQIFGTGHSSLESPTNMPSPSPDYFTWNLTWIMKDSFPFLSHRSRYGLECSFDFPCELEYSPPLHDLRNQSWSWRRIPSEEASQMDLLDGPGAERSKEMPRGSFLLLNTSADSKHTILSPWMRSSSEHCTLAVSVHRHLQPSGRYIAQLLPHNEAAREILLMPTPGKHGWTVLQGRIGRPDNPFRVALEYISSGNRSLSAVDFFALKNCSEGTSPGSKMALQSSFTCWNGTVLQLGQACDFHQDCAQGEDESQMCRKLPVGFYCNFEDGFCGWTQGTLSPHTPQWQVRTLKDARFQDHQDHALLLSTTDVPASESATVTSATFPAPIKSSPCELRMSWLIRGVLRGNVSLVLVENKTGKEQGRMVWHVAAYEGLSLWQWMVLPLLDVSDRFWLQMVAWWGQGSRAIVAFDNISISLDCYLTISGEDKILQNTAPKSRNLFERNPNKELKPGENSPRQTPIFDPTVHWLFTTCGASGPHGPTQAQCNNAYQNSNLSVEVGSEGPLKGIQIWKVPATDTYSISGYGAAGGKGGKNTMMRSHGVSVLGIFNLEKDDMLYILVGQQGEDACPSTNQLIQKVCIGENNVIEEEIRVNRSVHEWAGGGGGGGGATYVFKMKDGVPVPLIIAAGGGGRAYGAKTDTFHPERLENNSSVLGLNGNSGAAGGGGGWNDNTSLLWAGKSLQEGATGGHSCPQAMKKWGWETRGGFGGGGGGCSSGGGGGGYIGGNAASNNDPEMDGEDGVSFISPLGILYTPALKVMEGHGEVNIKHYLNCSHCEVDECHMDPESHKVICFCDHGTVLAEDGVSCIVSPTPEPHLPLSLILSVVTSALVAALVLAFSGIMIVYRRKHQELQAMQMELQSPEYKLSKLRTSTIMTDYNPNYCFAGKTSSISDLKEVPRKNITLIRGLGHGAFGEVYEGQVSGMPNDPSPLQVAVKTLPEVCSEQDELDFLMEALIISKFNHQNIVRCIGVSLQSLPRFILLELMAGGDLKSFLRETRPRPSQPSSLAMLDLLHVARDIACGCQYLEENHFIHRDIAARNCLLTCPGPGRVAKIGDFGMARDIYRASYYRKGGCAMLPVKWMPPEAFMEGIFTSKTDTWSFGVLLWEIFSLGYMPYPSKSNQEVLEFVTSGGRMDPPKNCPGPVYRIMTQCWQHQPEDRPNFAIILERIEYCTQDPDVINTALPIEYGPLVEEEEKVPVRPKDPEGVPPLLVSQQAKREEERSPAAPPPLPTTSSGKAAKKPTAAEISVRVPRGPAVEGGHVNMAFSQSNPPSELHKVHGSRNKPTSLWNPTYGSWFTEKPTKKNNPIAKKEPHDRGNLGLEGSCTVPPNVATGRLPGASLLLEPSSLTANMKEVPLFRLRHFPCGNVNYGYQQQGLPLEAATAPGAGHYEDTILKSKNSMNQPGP

[26] = Antiproliferative activity against ALK constitutively activated human NCI-H3122 cells at 10 nM after 72 hrs by SRB or CCK8 assay relative to control; assay type: functional; conditions: NCI-H3122, 72 h
[27] = Drug level in rat liver microsomes treated with 9-Ethyl-8-(4-((4-hydroxytetrahydro-2H-pyran-4-yl)methyl)piperazin-1-yl)-6,6-dimethyl-11-oxo-6,11-dihydro-5H-benzo[b]carbazole-3-carbonitrile after 3 hrs; assay type: ADME
Mus musculus = assay: Toxicity in nude mouse xenografted with human KARPAS299 cells assessed as body weight loss at 10 to 50 mg/kg, po qd administered for 14 days; assay type: organism-based, KARPAS-299; conditions: in vivo, 336 h
[28] = Antitumor activity against human KARPAS299 cells xenografted in nude mouse assessed as tumor growth inhibition at 20 mg/kg, po qd administered for 14 days measured twice per week during compound dosing relative to vehicle-treated control; assay type: functional; conditions: KARPAS-299, po, 336 h, read-out: TGI
[29] = Antitumor activity against human KARPAS299 cells xenografted in nude mouse assessed as tumor growth inhibition at 50 mg/kg, po qd administered for 14 days measured twice per week during compound dosing relative to vehicle-treated control; assay type: functional; conditions: KARPAS-299, po, 336 h, read-out: TGI
[30] = Antitumor activity against human KARPAS299 cells xenografted in nude mouse assessed as tumor growth inhibition at 10 mg/kg, po qd administered for 14 days measured twice per week during compound dosing relative to vehicle-treated control; assay type: functional; conditions: KARPAS-299, po, 336 h, read-out: TGI
[31] = biological target: T1, ALK tyrosine kinase receptor; assay: Inhibition of ALK in human NCI-H3122 cells assessed as decrease in ERK phosphorylation after 1 hr by Western blot method; assay type: cell-based
Target sequence in this assay (Q9UM73 19-1620 limits assumed): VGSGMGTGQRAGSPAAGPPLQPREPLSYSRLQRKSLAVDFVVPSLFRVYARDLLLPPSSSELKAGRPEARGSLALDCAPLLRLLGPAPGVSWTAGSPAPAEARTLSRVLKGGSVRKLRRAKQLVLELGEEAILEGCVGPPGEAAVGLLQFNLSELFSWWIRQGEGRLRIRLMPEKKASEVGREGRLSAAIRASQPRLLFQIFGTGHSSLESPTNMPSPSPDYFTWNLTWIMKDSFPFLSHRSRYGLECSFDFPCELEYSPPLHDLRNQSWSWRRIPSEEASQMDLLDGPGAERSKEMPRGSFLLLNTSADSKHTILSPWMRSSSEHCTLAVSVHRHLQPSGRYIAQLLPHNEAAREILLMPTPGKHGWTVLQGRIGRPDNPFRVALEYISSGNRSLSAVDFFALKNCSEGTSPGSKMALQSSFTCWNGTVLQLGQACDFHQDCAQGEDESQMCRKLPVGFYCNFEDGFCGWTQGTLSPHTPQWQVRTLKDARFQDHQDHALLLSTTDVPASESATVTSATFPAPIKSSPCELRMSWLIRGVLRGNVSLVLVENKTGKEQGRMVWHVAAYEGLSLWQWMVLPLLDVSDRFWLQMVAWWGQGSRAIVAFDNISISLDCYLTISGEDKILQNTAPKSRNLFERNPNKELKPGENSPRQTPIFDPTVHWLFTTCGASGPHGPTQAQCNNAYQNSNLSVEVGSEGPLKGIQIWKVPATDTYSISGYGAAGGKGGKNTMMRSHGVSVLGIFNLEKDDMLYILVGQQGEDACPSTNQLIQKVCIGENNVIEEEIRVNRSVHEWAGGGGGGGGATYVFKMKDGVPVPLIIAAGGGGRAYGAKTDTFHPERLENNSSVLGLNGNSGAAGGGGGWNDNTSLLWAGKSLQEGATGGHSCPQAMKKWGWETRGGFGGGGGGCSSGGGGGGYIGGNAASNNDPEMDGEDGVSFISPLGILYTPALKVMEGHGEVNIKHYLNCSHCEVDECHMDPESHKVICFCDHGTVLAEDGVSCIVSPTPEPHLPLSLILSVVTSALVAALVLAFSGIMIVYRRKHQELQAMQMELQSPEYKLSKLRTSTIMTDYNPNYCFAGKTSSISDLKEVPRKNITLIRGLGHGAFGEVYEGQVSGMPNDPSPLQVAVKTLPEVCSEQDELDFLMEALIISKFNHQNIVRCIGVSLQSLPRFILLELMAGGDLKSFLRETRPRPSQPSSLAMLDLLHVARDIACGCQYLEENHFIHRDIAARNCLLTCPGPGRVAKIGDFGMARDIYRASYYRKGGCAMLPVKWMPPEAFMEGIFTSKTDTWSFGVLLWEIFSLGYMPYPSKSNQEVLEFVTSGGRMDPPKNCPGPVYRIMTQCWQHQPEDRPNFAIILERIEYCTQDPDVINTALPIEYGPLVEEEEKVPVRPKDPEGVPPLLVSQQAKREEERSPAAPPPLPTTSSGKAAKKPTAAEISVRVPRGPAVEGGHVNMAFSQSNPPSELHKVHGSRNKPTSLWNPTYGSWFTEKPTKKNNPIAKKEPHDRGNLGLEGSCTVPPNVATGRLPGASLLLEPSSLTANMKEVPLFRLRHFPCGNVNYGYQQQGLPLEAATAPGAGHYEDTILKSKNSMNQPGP

[32] = biological target: T1, ALK tyrosine kinase receptor; assay: Inhibition of ALK in human NCI-H3122 cells assessed as decrease in Akt phosphorylation after 1 hr by Western blot method; assay type: cell-based
Target sequence in this assay (Q9UM73 19-1620 limits assumed): as above

[33] = biological target: T1, ALK tyrosine kinase receptor; assay: Inhibition of ALK phosphorylation in human NCI-H3122 cells after 1 hr by Western blot method; assay type: cell-based
Target sequence in this assay (Q9UM73 19-1620 limits assumed): as above

[34] = biological target: T1, ALK tyrosine kinase receptor; assay: Inhibition of ALK in human NCI-H3122 cells assessed as decrease in STAT3 phosphorylation after 1 hr by Western blot method; assay type: cell-based
Target sequence in this assay (Q9UM73 19-1620 limits assumed): as above

KARPAS-299 = assay: Antitumor activity against human KARPAS299 cells xenografted in nude mouse assessed as tumor regression at 10 to 50 mg/kg, po qd administered for 14 days measured post last dose; assay type: functional, organism-based

Chain of Voltage-gated inwardly rectifying potassium channel KCNH2 (Q12809 whole entry): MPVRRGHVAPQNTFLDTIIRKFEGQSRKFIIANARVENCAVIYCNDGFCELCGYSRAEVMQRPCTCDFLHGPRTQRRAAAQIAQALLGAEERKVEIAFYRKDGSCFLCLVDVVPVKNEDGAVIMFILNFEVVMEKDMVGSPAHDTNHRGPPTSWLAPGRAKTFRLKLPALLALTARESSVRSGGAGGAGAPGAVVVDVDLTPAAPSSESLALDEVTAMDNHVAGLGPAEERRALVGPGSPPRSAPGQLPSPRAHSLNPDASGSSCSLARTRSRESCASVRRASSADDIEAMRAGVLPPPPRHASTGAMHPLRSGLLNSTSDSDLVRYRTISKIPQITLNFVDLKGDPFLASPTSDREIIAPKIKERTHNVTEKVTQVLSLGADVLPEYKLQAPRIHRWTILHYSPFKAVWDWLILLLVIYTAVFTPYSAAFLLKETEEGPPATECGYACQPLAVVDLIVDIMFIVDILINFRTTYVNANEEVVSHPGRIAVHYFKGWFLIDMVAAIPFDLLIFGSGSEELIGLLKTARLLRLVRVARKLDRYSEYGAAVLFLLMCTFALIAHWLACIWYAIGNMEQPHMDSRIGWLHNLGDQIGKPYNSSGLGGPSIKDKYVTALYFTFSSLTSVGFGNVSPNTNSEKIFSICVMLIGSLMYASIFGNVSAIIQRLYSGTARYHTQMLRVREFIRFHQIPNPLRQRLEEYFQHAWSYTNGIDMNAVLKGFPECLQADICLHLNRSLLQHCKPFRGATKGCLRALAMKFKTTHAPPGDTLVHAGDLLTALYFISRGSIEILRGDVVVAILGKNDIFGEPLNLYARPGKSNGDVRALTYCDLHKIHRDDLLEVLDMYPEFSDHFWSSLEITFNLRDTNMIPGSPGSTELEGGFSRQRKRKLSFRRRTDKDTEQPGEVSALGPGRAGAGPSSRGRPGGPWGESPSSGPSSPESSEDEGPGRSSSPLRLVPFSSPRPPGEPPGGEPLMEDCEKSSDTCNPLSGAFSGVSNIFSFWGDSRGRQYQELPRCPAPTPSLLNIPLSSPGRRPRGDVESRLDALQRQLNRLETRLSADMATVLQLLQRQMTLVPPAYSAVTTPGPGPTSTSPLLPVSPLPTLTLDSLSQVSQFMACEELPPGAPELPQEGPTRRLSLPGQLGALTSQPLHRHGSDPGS
Chain of ALK tyrosine kinase receptor (Homo sapiens, UniProt Q9UM73, L1196M) (Q9UM73 19-1620 L1196M limits assumed): as the sequence (Q9UM73 19-1620 limits assumed) above, with L1178M counted along it
Chain of Proto-oncogene tyrosine-protein kinase Src (P12931 2-536 limits assumed): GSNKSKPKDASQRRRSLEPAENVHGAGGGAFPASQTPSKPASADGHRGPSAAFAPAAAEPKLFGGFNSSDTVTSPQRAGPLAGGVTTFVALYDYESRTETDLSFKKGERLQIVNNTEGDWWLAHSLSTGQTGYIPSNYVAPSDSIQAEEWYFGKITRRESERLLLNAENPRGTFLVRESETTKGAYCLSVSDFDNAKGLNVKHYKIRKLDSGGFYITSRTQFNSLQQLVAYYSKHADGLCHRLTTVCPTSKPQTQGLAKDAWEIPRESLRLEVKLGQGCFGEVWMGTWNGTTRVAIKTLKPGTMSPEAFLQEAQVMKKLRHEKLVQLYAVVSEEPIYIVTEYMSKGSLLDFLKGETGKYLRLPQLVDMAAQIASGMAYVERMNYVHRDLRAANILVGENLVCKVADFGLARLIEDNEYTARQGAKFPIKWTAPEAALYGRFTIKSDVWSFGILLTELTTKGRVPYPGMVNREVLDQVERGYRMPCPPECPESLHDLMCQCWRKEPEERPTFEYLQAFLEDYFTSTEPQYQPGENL

Structure (SMILES): CC1(C)c2cc(C3CCN(CC4(O)CCOCC4)CC3)ccc2C(=O)c2c1[nH]c1cc(C#N)ccc21
IC50 [18]: > 12300 nM

Structure (SMILES): CCc1cc2c(cc1N1CCN(CC3(O)CC(C)OC(C)C3)CC1)C(C)(C)c1[nH]c3cc(C#N)ccc3c1C2=O (stereo not given)
inhibition at 0.01 µM [26]: 40%
IC50 [25]: 2.4 nM

Structure (SMILES): CC1(C)c2cc(C3CCN(CC4CCOCC4)CC3)ccc2C(=O)c2c1[nH]c1cc(C#N)ccc21
IC50 [18]: 2650 nM

Structure (SMILES): CCc1cc2c(cc1N1CCN(CC(O)(CCC(=O)O)CC(=O)O)CC1)C(C)(C)c1[nH]c3cc(C#N)ccc3c1C2=O (stereo not given)
Drug metabolism [27]: Metabolite_Detected
inhibition at 0.05 µM [16]: 3%
IC50 [25]: 17.1 nM

Structure (SMILES): CCc1cc2c(cc1N1CCN(CC3(O)CCOCC3)CC1)C(C)(C)c1[nH]c3cc(C#N)ccc3c1C2=O.Cl
Activity (Mus musculus): Non-Toxic
inhibition in vivo at 20 mg/kg [28]: > 100%
inhibition in vivo at 50 mg/kg [29]: 110%
inhibition in vivo at 10 mg/kg [30]: 110%

Structure (SMILES): C[C@@H](Oc1cc(-c2cnn(C3CCNCC3)c2)cnc1N)c1c(Cl)ccc(F)c1Cl [CRIZOTINIB]
IC50 [7]: 105 nM
IC50 [9]: 92.3 nM
IC50 [23]: 101 nM
inhibition in vivo at 50 mg/kg [29]: 109%

More lines, main results first:

IC50 [1]: > 1000 nM
IC50 [2]: > 1000 nM
IC50 [3]: > 1000 nM
Vd [4]: 5 L/kg
IC50 [5]: > 1000 nM
IC50 [6]: > 1000 nM
clearance [8]: 12.2 mL/min/kg
IC50 (Ephrin type-A receptor 2): > 1000 nM
AUC(0-inf) [10]: 6640 ng·h/mL
IC50 [11]: > 1000 nM
IC50 [12]: 4.2 nM
AUC(0-inf) [13]: 11700 ng·h/mL
half-life [14]: 5.5 h
Cmax [15]: 867 ng/mL
IC50 [17]: > 1000 nM
IC50 [19]: > 1000 nM
Tmax [20]: 4 h
IC50 [21]: > 1000 nM
bioavailability [22]: 105%
IC50 [24]: > 1000 nM
IC50 [25]: 1.5 nM
Structure (SMILES): CCc1cc2c(cc1N1CCN(CC3(O)CCOCC3)CC1)C(C)(C)c1[nH]c3cc(C#N)ccc3c1C2=O [listing 1 of 2 here]
IC50 [7]: 22.6 nM
IC50 [9]: 16.7 nM
inhibition at 0.05 µM [16]: 80%
IC50 [18]: 30000 to 33400 nM
IC50 [23]: 24.4 nM

IC50 [25]: 7 nM
Structure (SMILES): CCc1cc2c(cc1N1CCN(CC3(O)CCCCC3)CC1)C(C)(C)c1[nH]c3cc(C#N)ccc3c1C2=O
inhibition at 0.05 µM [16]: 40%

IC50 [25]: 1.4 nM
Structure (SMILES): CCc1cc2c(cc1N1CCN(CC3(O)CCNCC3)CC1)C(C)(C)c1[nH]c3cc(C#N)ccc3c1C2=O
inhibition at 0.05 µM [16]: 5%

inhibition [31]: Dose-dependent effect
inhibition [32]: Dose-dependent effect
inhibition [33]: Dose-dependent effect
inhibition [34]: Dose-dependent effect
Structure (SMILES): CCc1cc2c(cc1N1CCN(CC3(O)CCOCC3)CC1)C(C)(C)c1[nH]c3cc(C#N)ccc3c1C2=O [listing 2 of 2 here]
Activity (KARPAS-299): Active
